Key:
Early Blight = test: Trials of Chlorantraniliprole+Mancozeb+Orthosilicic acid on Early Blight control; type: in vivo
Protocol: Trials were conducted to test the efficacy of the combination of Chlorantraniliprole+Mancozeb+Orthosilicic acid on Early Blight control: […]

fruit borer = test: Trials of Chlorantraniliprole and Orthosilicic acid on controlling fruit borer; type: in vivo; conditions: for Percent fruit Borer control Mean: Mean of A-10, B-10, C-10
Protocol: Trials were conducted to test the efficacy of the combination of Chlorantraniliprole and Orthosilicic acid on controlling fruit borer at different dosages.

CNC(=O)c1cc(Cl)cc(C)c1NC(=O)c1cc(Br)nn1-c1ncccc1Cl [Chlorantraniliprole]
Per Cent Early Blight Control (PDC) A-10 (Early Blight; T-5, dose 150 gm-ml/ha): 04.52% | Per Cent Early Blight Control (PDC) B-10 (Early Blight; T-5, dose 150 gm-ml/ha): 02.39% | Per Cent Early Blight Control (PDC) C-10 (Early Blight; T-5, dose 150 gm-ml/ha): 02.76% | Per Cent Early Blight Control (PDC) Mean (Early Blight; T-5, dose 150 gm-ml/ha): 3.22% | Percent fruit Borer control A-10 (fruit borer; dose 150 gm-ml/ha): 73.8% | Percent fruit Borer control B-10 (fruit borer; dose 150 gm-ml/ha): 85.4% | Percent fruit Borer control C-10 (fruit borer; dose 150 gm-ml/ha): 87.8% | Percent fruit Borer control Mean (fruit borer; dose 150 gm-ml/ha): 82.33%

Mancozeb
Per Cent Early Blight Control (PDC) A-10 (Early Blight; T-6, dose 2000 gm-ml/ha): 72.26% | Per Cent Early Blight Control (PDC) B-10 (Early Blight; T-6, dose 2000 gm-ml/ha): 77.04% | Per Cent Early Blight Control (PDC) C-10 (Early Blight; T-6, dose 2000 gm-ml/ha): 81.17% | Per Cent Early Blight Control (PDC) Mean (Early Blight; T-6, dose 2000 gm-ml/ha): 76.82%

Orthosilicic acid [OSA]
Per Cent Early Blight Control (PDC) A-10 (Early Blight; T-7, dose 750 gm-ml/ha): 9.38% | Per Cent Early Blight Control (PDC) B-10 (Early Blight; T-7, dose 750 gm-ml/ha): 11.57% | Per Cent Early Blight Control (PDC) C-10 (Early Blight; T-7, dose 750 gm-ml/ha): 13.95% | Per Cent Early Blight Control (PDC) Mean (Early Blight; T-7, dose 750 gm-ml/ha): 11.63% | Effect of addition on effectiveness of the combination of chlorantraniliprole+Mancozeb against Early blight (Early Blight; added to Chlorantraniliprole+Mancozeb): act as synergist | Percent fruit Borer control A-10 (fruit borer; dose 750 gm-ml/ha): 2.1% | Percent fruit Borer control B-10 (fruit borer; dose 750 gm-ml/ha): 3.6% | Percent fruit Borer control C-10 (fruit borer; dose 750 gm-ml/ha): 4.4% | Percent fruit Borer control Mean (fruit borer; dose 750 gm-ml/ha): 3.37%
